From patent publication US20250179032A1, “HETEROCYCLIC INHIBITORS OF GLUT9 FOR TREATMENT OF DISEASE” (HORIZON THERAPEUTICS IRELAND DAC, priority 2022, published 2025)

molecular target: T1, H. sapiens SLC2A9 variant 2 (GLUT9B) (Homo sapiens, UniProt Q9NRM0); test: GLUT9 functional assay: uric acid uptake in HEK293T cells, allantoin formation by MS/MS as proxy of GLUT9B inhibition; assay type: cell-based; conditions: 15 minute assay; HEK293T cells stably expressing GLUT9B and transiently A. oryzae uricase; uric acid 0.3 mM, 37° C.; read-out: 15 min IC50
T1 sequence (Q9NRM0 1-511 isoform Q9NRM0-2): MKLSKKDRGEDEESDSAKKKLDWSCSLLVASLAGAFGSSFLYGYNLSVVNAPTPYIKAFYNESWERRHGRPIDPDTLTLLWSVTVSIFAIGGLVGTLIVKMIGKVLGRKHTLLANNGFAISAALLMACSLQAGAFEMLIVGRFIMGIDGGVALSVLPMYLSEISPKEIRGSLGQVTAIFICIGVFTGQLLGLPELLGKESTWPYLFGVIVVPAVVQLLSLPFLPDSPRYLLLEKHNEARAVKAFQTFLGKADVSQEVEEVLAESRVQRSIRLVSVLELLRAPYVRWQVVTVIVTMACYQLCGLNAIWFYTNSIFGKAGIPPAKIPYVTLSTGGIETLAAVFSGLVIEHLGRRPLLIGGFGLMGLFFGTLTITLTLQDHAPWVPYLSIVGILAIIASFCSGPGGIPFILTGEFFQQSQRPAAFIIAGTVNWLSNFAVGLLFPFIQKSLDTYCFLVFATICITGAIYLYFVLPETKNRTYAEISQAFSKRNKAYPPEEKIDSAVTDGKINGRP
Description: Uric acid stocks (9 mM, Millipore-Sigma, U0881) were generated in 125 mM choline chloride (Millipore-Sigma, C7017) and the concentration was determined at 293 nm using a molar extinction coefficient of 9600 M- ^1 cm- ^1) after collecting the absorbance spectra from 220-350 nm. Allantoin stocks (12 mM Toronto Research Chemicals, A540500) were generated in LCMS grade water (Thermo Scientific, 51140). The concentration of allantoin was determined by qNMR (Michigan State University). HEK293T cells were purchased from ATCC (HEK 293T/17 SF). Hanks buffered saline salts (HBSS) was purchased from Millipore-Sigma (H6648-1L).
SLC2A9 variant 2 was assayed in sodium gluconate buffer was composed of 125 mM sodium gluconate (TCI Chemicals, G0041-500G), 4.8 mM potassium gluconate (TCI Chemicals, G0040-500G), 1.2 mM calcium gluconate (TCI Chemicals, G0037-500G), 1.2 mM potassium phosphate (pH 7.4, Millipore-Sigma, 17835), 1.2 mM MgSO4, Millipore-Sigma, M2773-500G), 25 mM HEPES pH 7.3, (Millipore-Sigma, 54457). The final pH of the buffer was 7.4. Urate 1 was assayed in the same buffer save the pH was made to be 5.5 using 25 mM MES (pH 5.5) buffer vs 25 mM HEPES (pH 7.3) buffer.
Human untagged clone for (untagged)-human solute carrier family 2 member 9 (SLC2A9), transcript variant (SLC2A9/NM_001001290, FIG. 1 and FIG. 2; SEQ ID NOS: 3 and 4) was purchased from Origene (Cat #SC319239). SLC2A9 variant 2 (GLUT9B) gene was amplified by PCR using the following primer to allow for the introduction of EcoR1 and Not1 sites using the primers below.
HEK293T clonal stable cell lines containing the SLC2A9 variant 2 construct in the bicistronic pIRESpuro vector were generated using Viafect™ (Promega E4981) as per the manufactures instructions and puromycin selection (5 μg×mL^−1).
Uric acid uptake was measured in HEK293T cells stably expressing H. sapiens SLC2A9 variant 2 (GLUT9B) and transiently expressing A. oryzae uricase. Thus, decreased allantoin formation was used as a proxy of GLUT9B inhibition. Briefly, clonal cells were plated (53,000 cells/cm^2) in DMEM with 10% FBS. Twenty-four hours later, A. oryzae uricase was transfected, and assay conducted 3 days later across a 12-point curve in buffer (in mM: 125 sodium gluconate, 4.8 potassium gluconate, 1.2 calcium gluconate, 1.2 potassium phosphate, 1.2 magnesium sulfate4, 25 HEPES; pH 7.4) with uric acid at the GLUT9B Km (0.3 mM) for 15 min or for 60 min, at 37° C. Following wash (Hanks, 37° C.), plates were sealed, incubated (5 min, RT) and cells freeze-thawed prior to lysing in water and shaking (30 min RT). Lysates were filtered through PVDF and subjected to MSMS using a 10 mM ammonium acetate-based mobile phase on a porous graphitic carbon column. Allantoin was detected in positive ion mode. Desired analyte concentrations were quantitated by integrating the area under the curve followed by a log-logistic regression model and data compared to a standard curve prepared in a matching HEK293T biological matrix.
Mass spectrometry measurement of allantoin was completed using an Agilent RapidFire 300 coupled to a Sciex API 4000 mass spectrometer. The stationary phase was an Agilent cartridge D (hypercarb). Mobile phase A was 10 mM ammonium acetate. Mobile phase B was 5 mM ammonium acetate, 25% acetonitrile, 25% acetone. Allantoin was detected in positive ion mode with the following compound ID settings: Q1 159, Q3 115.8, DP 57, CE 12.5 Dwell 100 ms. The source settings were CAD 10, CUR 20, GS1 50, GS250 IS/NC: 5000, TEM 650, EP 10, CXP 10 where Q1 and Q3 resolution were set to low.
Data was quantitated using Area under the curve integration was performed with the RapidFire™ Integrator (Agilent Technologies) for the desired analytes. Quantitation was completed using in a using a log-logistic regression model using allantoin in matching HEK293T biological matrix.

Row | IC50 [nM] | SMILES
1 | > 2000 | CCCCc1cnc(-c2ccc(OC)cc2)c(-c2ccc(C(=O)O)cn2)c1 [Compound 24, 5′-butyl-2′-(4-methoxyphenyl)-[2,3′-bipyridine]-5-carboxylic acid]
2 | > 2000 | CCCCc1cnc(-c2ccc(OC)cc2)c(-c2ncc(C(=O)O)s2)c1 [Compound 25, 2-(5-butyl-2-(4-methoxyphenyl)pyridin-3-yl)thiazole-5-carboxylic acid]
3 | > 2000 | CCCCc1cnc(-c2ccc(OC)cc2)c(-c2cc(=O)[nH][nH]2)c1 [Compound 26, 5-(5-butyl-2-(4-methoxyphenyl)pyridin-3-yl)-1,2-dihydro-3H-pyrazol-3-one]
4 | 500 to 2000 | CCCCc1cnc(-c2ccc(OC)cc2)c(-c2ccc3c(c2)CNC3=O)c1 [Compound 27, 5-(5-butyl-2-(4-methoxyphenyl)pyridin-3-yl)isoindolin-1-one]
5 | 500 to 2000 | CCCCc1nc(-c2ccc(OC)cc2)c(N2CCC(C(=O)O)CC2)o1 [Compound 28, 1-(2-butyl-4-(4-methoxyphenyl)oxazol-5-yl)piperidine-4-carboxylic acid]
6 | < 500 | CCCCc1cnc(-c2ccc(OC)cc2)c(-c2cn(CC(=O)O)nn2)c1 [Compound 29, 2-(4-(5-butyl-2-(4-methoxyphenyl)pyridin-3-yl)-1H-1,2,3-triazol-1-yl)acetic acid]
7 | < 500 | COc1ccc(-c2ncc(CCC(F)(F)C(F)(F)F)nc2N2CCC(C(=O)O)CC2)cc1 [Compound 30, 1-(3-(4-methoxyphenyl)-6-(3,3,4,4,4-pentafluorobutyl)pyrazin-2-yl)piperidine-4-carboxylic acid]
8 | < 500 | COc1ccc(-c2ncc(CCCC(F)(F)F)nc2N2CCC(C(=O)O)CC2)cc1 [Compound 31, 1-(3-(4-methoxyphenyl)-6-(4,4,4-trifluorobutyl)pyrazin-2-yl)piperidine-4-carboxylic acid]
9 | > 2000 | COc1ccc(-c2ncc(COCC(F)(F)F)nc2N2CCC(C(=O)O)CC2)cc1 [Compound 32, 1-(3-(4-methoxyphenyl)-6-((2,2,2-trifluoroethoxy)methyl)pyrazin-2-yl)piperidine-4-carboxylic acid]
10 | 500 to 2000 | COCCOc1ccc(-c2ncc(COCC(F)(F)F)nc2N2CCC(C(=O)O)CC2)cc1 [Compound 33, 1-(3-(4-(2-methoxyethoxy)phenyl)-6-((2,2,2-trifluoroethoxy)methyl)pyrazin-2-yl)piperidine-4-carboxylic acid]
11 | 500 to 2000 | COCCOc1ccc(-c2ncc(CCCC(F)(F)F)nc2N2CCC(C(=O)O)CC2)cc1 [Compound 34, 1-(3-(4-(2-methoxyethoxy)phenyl)-6-(4,4,4-trifluorobutyl)pyrazin-2-yl)piperidine-4-carboxylic acid]
12 | 500 to 2000 | CCCCc1cnc(-c2ccc(OC)cc2)c(-c2ccc3c(c2)COC3=O)n1 [Compound 35, 5-(6-butyl-3-(4-methoxyphenyl)pyrazin-2-yl)isobenzofuran-1(3H)-one]
13 | 500 to 2000 | CCCCc1cnc(-c2ccc(OC)cc2)c(N2CC3(CC(C(=O)O)C3)C2)n1 [Compound 36, 2-(6-butyl-3-(4-methoxyphenyl)pyrazin-2-yl)-2-azaspiro[3.3]heptane-6-carboxylic acid]
14 | < 500 | CCCCc1cnc(-c2ccc(OCCOC)c(F)c2)c(N2CCC(C(=O)O)CC2)n1 [Compound 37, 1-(6-butyl-3-(3-fluoro-4-(2-methoxyethoxy)phenyl)pyrazin-2-yl)piperidine-4-carboxylic acid]
15 | 500 to 2000 | CCCCc1cnc(-c2cc(F)c(OCCOC)c(F)c2)c(N2CCC(C(=O)O)CC2)n1 [Compound 38, 1-(6-butyl-3-(3,5-difluoro-4-(2-methoxyethoxy)phenyl)pyrazin-2-yl)piperidine-4-carboxylic acid]
16 | < 500 | CCCCc1cnc(-c2ccc(OC)cc2)c(-c2ccc3c(C(=O)O)c[nH]c3c2)c1 [Compound 39, 6-(5-butyl-2-(4-methoxyphenyl)pyridin-3-yl)-1H-indole-3-carboxylic acid]
